Test results taken from US5399487A, “6-peptidylamino-1-naphthalenesulfonamides useful as fluorogenic proteolytic enzyme substrates” (Haematologic Technologies, Inc., priority 1993, dated 1995).

Assays:
[1] = Fluorescence of 6-amino-1-naphthalenesulfonamides and substrates; assay type: physicochemical; settings: for Relative Fluorescence: TBS, pH 7.4, 22°C., 1 μM, relative to ANSNH(i-C4 H9), excitation 352 nm, emission 470 nm; for Emission Maxima: free fluorophore
From the text: Each of the 6-amino-1-naphthalenesulfonamide detecting groups, i.e., the free fluorophores, have excitation maxima near 350 nm with emission maxima ranging from 465 to 476 nm. Fluorescent measurements show a 2.2 fold range in the intensities of the fluorescent signals among the fifteen synthesized compounds. The 6-peptidylamino-1-naphthalenesulfonamide fluorogenic substrates have a relative fluorescent intensity at 470 nm which is less than 0.1% of that of the respective free fluorophore. Detection of the free fluorophore can be reliably achieved (>2× background) at a concentration of about 10^-9 M in the presence of about 10^-6 fluorogenic substrate.
^a Measured in TBS, pH 7.4. 22°C.. Concentration of ANSNR
R2 = 1 μM. Fluorescence is expressed relative of ANSNH(i-C4
H9). Excitation wavelength = 352 nm, Emission wavelength = 470 nm.

thrombin (IIa) = biological target: T1, thrombin (IIa) (Homo sapiens, UniProt P00734); experiment: Fluorogenic enzyme assay (Example 5); assay type: biochemical; set-up: key to Hydrolysis kinetic constants, IIa (symbol b): Slow substrate hydrolysis, no kinetic constants calculated; settings: for Time (min) for 10% hydrolysis, IIa: enzyme 100 nM, substrate 1 μM
T1 construct: 0.5 nM human thrombin (IIa)
Procedure: (§1) Enzyme assays (except factor VIIa assays, see below) were conducted in 20 mM Tris, 150 mM NaCl, pH 7.4 (TBS) at room temperature (22° C.). The final volume for all reaction mixtures was 2.0 ml. Fluorogenic substrates were dissolved in DMSO to a stock concentration of 10 mM. The 10 mM stock solution was diluted in TBS to the final working concentration prior to all assays. Enzyme was added to mixtures containing buffer components and substrate and the initial rate of substrate hydrolysis was measured as the change in fluorescent intensity over time, corresponding to the generation of the particular 6-amino-1-naphthalenesulfonamide fluorophore from the provided substrate. Quantitation of substrate hydrolysis was accomplished by establishing a standard curve from the appropriate fluorescent moiety. Fluorescence was monitored (continuously or discontinuously) using a Perkin Elmer fluorescence spectrophotometer, model MPF-44A, equipped with a standard chart recorder. The fluorophore was detected using monochrometers set at an excitation wavelength of 352 nm and an emission wavelength of 470 nm. Light scattering artifacts were minimized using a 399 nm cut off filter in the emission light beam.
(§2) The kinetic constants of substrate hydrolysis were determined using the non-linear least squares regression analysis program ENZFITTER (Cambridge, UK). This program was used to iteratively fit initial rates of substrate hydrolysis to the Michaelis-Menten equation and the kinetic constants of substrate hydrolysis (Km) and (kcat) were calculated.

factor Xa = factor Xa (Homo sapiens, UniProt P00742); experiment: Fluorogenic enzyme assay (Example 5); assay type: biochemical; settings: for Km / kcat /Km, Xa / kcat, Xa: Table 7; for Time (min) for 10% hydrolysis, Xa: enzyme 100 nM, substrate 1 μM
Procedure: as §1, §2

[2] = biological target: activated protein C (APC) (Homo sapiens, UniProt P04070); experiment: Fluorogenic enzyme assay (Example 5); assay type: biochemical; set-up: key to Hydrolysis kinetic constants, APC (symbol b): Slow substrate hydrolysis, no kinetic constants calculated; settings: for Km / kcat /Km, APC / kcat, APC / Hydrolysis kinetic constants, APC (symbol b): Table 7; for Time (min) for 10% hydrolysis, APC: enzyme 100 nM, substrate 1 μM
Procedure: as §1, §2

plasmin (Plm) = plasmin (Plm) (Homo sapiens, UniProt P00747); experiment: Fluorogenic enzyme assay (Example 5); assay type: biochemical; settings: footnote b; enzyme 100 nM, substrate 1 μM
Procedure: as §1, §2

[3] = biological target: tissue plasminogen activator (t-PA) (Homo sapiens, UniProt P00750); experiment: Fluorogenic enzyme assay (Example 5); assay type: biochemical; settings: enzyme 100 nM, substrate 1 μM; for hydrolysis, t-PA (symbol N.D.): after 24 hrs
Procedure: as §1, §2

urokinase (u-PA) = urokinase (u-PA) (Homo sapiens, UniProt P00749); experiment: Fluorogenic enzyme assay (Example 5); assay type: biochemical; settings: enzyme 100 nM, substrate 1 μM
Procedure: as §1, §2

Chain of activated protein C (APC) (P04070 212-461 limits assumed): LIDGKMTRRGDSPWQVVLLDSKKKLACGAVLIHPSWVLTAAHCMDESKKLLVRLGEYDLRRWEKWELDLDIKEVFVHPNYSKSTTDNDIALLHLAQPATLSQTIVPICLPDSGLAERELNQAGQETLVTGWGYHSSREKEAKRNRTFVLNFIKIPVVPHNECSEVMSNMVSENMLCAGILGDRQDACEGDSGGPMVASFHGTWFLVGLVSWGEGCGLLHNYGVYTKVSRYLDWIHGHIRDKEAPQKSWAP
Chain of activated protein C (APC) (P04070 43-197 limits assumed): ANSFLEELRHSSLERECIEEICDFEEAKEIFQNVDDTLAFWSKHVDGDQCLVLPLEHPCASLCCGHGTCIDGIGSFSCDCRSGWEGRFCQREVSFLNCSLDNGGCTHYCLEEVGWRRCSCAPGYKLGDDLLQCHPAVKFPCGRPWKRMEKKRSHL
Chain of tissue plasminogen activator (t-PA) (P00750 36-562, species assumed): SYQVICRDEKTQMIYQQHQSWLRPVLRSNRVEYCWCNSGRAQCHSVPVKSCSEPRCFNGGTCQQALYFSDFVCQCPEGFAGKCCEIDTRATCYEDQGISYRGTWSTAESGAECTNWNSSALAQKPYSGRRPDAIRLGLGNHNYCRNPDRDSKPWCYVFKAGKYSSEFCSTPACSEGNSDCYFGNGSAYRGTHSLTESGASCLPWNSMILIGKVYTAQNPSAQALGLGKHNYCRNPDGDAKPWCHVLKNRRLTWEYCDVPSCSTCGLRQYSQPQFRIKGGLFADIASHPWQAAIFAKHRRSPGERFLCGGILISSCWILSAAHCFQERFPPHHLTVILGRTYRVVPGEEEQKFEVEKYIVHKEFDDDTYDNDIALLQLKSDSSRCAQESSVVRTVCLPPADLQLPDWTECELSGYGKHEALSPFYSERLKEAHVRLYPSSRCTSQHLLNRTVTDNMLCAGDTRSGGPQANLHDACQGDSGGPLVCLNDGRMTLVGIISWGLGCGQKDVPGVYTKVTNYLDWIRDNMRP
Chain of factor Xa (P00742 235-488 limits assumed): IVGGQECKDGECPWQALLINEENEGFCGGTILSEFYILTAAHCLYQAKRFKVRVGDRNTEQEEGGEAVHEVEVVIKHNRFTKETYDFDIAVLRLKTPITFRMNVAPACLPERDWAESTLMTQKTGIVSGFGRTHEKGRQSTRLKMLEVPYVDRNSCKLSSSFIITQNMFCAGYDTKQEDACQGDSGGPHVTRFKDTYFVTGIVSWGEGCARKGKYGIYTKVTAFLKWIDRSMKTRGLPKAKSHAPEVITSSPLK
Chain of factor Xa (P00742 41-179 limits assumed): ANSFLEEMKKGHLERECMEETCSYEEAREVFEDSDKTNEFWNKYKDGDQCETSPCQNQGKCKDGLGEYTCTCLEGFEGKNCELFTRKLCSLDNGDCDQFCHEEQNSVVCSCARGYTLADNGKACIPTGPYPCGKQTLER
Chain of plasmin (Plm) (P00747 581-810 limits assumed, species assumed): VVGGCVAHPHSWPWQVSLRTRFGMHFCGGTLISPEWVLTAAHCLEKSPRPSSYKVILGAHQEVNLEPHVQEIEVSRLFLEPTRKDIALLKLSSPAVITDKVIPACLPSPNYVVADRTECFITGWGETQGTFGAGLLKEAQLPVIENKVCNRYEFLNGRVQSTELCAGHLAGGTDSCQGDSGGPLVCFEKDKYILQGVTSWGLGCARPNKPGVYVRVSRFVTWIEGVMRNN
Chain of plasmin (Plm) (P00747 97-580 limits assumed, species assumed): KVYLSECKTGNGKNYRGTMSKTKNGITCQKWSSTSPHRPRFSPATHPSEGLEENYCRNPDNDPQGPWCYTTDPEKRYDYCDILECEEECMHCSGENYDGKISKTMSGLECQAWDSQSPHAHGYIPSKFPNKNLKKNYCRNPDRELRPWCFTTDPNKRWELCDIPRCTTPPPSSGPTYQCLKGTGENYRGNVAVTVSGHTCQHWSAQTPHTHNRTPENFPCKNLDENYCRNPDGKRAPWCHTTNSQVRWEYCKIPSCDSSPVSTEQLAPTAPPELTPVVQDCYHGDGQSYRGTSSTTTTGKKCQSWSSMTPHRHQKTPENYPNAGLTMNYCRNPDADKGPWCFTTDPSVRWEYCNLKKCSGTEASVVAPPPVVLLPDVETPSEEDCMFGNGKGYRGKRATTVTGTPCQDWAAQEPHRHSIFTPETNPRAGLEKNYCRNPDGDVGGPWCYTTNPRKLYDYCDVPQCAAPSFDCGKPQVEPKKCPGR

CCCCNS(=O)(=O)c1cccc2cc(N)ccc12 [ANSNR1 R2; H; C4 H9]
Relative Fluorescence [1]: 63
Emission Maxima [1]: 467 nm

Br.CC(C)(C)NS(=O)(=O)c1cccc2cc(NC(=O)[C@H](CCCNC(=N)N)NC(=O)OCc3ccccc3)ccc12 [(N^α -Z)ArgANSNR1 R2; H; t-C4 H9]
Km (thrombin (IIa); Table 7): 24 µM
kcat /Km, IIa (thrombin (IIa); Table 7): 930 M⁻¹ s⁻¹
kcat, IIa (thrombin (IIa); Table 7): 0.02 s⁻¹
Time (min) for 10% hydrolysis, IIa (thrombin (IIa)): 34 min
Km (factor Xa): 114 µM
kcat /Km, Xa (factor Xa): 487 M⁻¹ s⁻¹
kcat, Xa (factor Xa): 0.06 s⁻¹
Time (min) for 10% hydrolysis, Xa (factor Xa): 45 min
Km [2]: 738 µM
kcat /Km, APC [2]: 540 M⁻¹ s⁻¹
kcat, APC [2]: 0.4 s⁻¹
Time (min) for 10% hydrolysis, APC [2]: 45 min
Time (min) for 5% hydrolysis, Plm (plasmin (Plm)): 910 min
hydrolysis, t-PA (symbol N.D.) [3]: N.D. (Less than 5% hydrolysis after 24 hrs.)
Time (min) for 10% hydrolysis, u-PA (urokinase (u-PA)): 1260 min

Nc1ccc2c(S(=O)(=O)N3CCOCC3)cccc2c1 [ANSNR1 R2; morpholyl]
Relative Fluorescence [1]: 41
Emission Maxima [1]: 476 nm

Br.CC(C)NS(=O)(=O)c1cccc2cc(NC(=O)[C@H](CCCNC(=N)N)NC(=O)OCc3ccccc3)ccc12 [(N^α -Z)ArgANSNR1 R2; H; i-C3 H7]
Km (thrombin (IIa); Table 7): 25 µM
kcat /Km, IIa (thrombin (IIa); Table 7): 1180 M⁻¹ s⁻¹
kcat, IIa (thrombin (IIa); Table 7): 0.03 s⁻¹
Time (min) for 10% hydrolysis, IIa (thrombin (IIa)): 34 min
Km (factor Xa): 102 µM
kcat /Km, Xa (factor Xa): 800 M⁻¹ s⁻¹
kcat, Xa (factor Xa): 0.08 s⁻¹
Time (min) for 10% hydrolysis, Xa (factor Xa): 36 min
Km [2]: 343 µM
kcat /Km, APC [2]: 510 M⁻¹ s⁻¹
kcat, APC [2]: 0.17 s⁻¹
Time (min) for 10% hydrolysis, APC [2]: 50 min
Time (min) for 5% hydrolysis, Plm (plasmin (Plm)): 1370 min
hydrolysis, t-PA (symbol N.D.) [3]: N.D. (Less than 5% hydrolysis after 24 hrs.)
Time (min) for 10% hydrolysis, u-PA (urokinase (u-PA)): 1260 min

CCNS(=O)(=O)c1cccc2cc(N)ccc12 [ANSNR1 R2; H; C2 H5]
Relative Fluorescence [1]: 78
Emission Maxima [1]: 466 nm

Nc1ccc2c(S(=O)(=O)NC3CCCCC3)cccc2c1 [ANSNR1 R2; H; cyclo-C6 H11]
Relative Fluorescence [1]: 101
Emission Maxima [1]: 466 nm

CN(C)S(=O)(=O)c1cccc2cc(N)ccc12 [ANSNR1 R2; CH3; CH3]
Relative Fluorescence [1]: 65
Emission Maxima [1]: 472 nm

CC(C)(C)NS(=O)(=O)c1cccc2cc(N)ccc12 [ANSNR1 R2; H; t-C4 H9]
Relative Fluorescence [1]: 112
Emission Maxima [1]: 465 nm

Br.N=C(N)NCCC[C@H](NC(=O)OCc1ccccc1)C(=O)Nc1ccc2c(S(=O)(=O)N3CCOCC3)cccc2c1 [(N^α -Z)ArgANSNR1 R2; morpholyl]
Hydrolysis kinetic constants, IIa (symbol b) (thrombin (IIa); Table 7): b
Time (min) for 10% hydrolysis, IIa (thrombin (IIa)): 76 min
Km (factor Xa): 80 µM
kcat /Km, Xa (factor Xa): 625 M⁻¹ s⁻¹
kcat, Xa (factor Xa): 0.05 s⁻¹
Time (min) for 10% hydrolysis, Xa (factor Xa): 45 min
Hydrolysis kinetic constants, APC (symbol b) [2]: b
Time (min) for 10% hydrolysis, APC [2]: 171 min
Time (min) for 5% hydrolysis, Plm (plasmin (Plm)): 1220 min
hydrolysis, t-PA (symbol N.D.) [3]: N.D. (Less than 5% hydrolysis after 24 hrs.)
hydrolysis, u-PA (symbol N.D.) (urokinase (u-PA); after 24 hrs): N.D. (Less than 5% hydrolysis after 24 hrs.)

Br.CNS(=O)(=O)c1cccc2cc(NC(=O)[C@H](CCCNC(=N)N)NC(=O)OCc3ccccc3)ccc12 [(N^α -Z)ArgANSNR1 R2; H; CH3]
Km (thrombin (IIa); Table 7): 62.5 µM
kcat /Km, IIa (thrombin (IIa); Table 7): 640 M⁻¹ s⁻¹
kcat, IIa (thrombin (IIa); Table 7): 0.04 s⁻¹
Time (min) for 10% hydrolysis, IIa (thrombin (IIa)): 38 min
Km (factor Xa): 160 µM
kcat /Km, Xa (factor Xa): 714 M⁻¹ s⁻¹
kcat, Xa (factor Xa): 0.11 s⁻¹
Time (min) for 10% hydrolysis, Xa (factor Xa): 25 min
Hydrolysis kinetic constants, APC (symbol b) [2]: b
Time (min) for 10% hydrolysis, APC [2]: 120 min
Time (min) for 5% hydrolysis, Plm (plasmin (Plm)): 1620 min
Time (min) for 5% hydrolysis, t-PA ([3]; footnote b): 1280 min
Time (min) for 10% hydrolysis, u-PA (urokinase (u-PA)): 660 min

Br.CCCNS(=O)(=O)c1cccc2cc(NC(=O)[C@H](CCCNC(=N)N)NC(=O)OCc3ccccc3)ccc12 [(N^α -Z)ArgANSNR1 R2; H; C3 H7]
Km (thrombin (IIa); Table 7): 22.2 µM
kcat /Km, IIa (thrombin (IIa); Table 7): 1580 M⁻¹ s⁻¹
kcat, IIa (thrombin (IIa); Table 7): 0.04 s⁻¹
Time (min) for 10% hydrolysis, IIa (thrombin (IIa)): 27 min
Km (factor Xa): 125 µM
kcat /Km, Xa (factor Xa): 593 M⁻¹ s⁻¹
kcat, Xa (factor Xa): 0.07 s⁻¹
Time (min) for 10% hydrolysis, Xa (factor Xa): 40 min
Km [2]: 320 µM
kcat /Km, APC [2]: 1470 M⁻¹ s⁻¹
kcat, APC [2]: 0.47 s⁻¹
Time (min) for 10% hydrolysis, APC [2]: 15 min
Time (min) for 5% hydrolysis, Plm (plasmin (Plm)): 1620 min
hydrolysis, t-PA (symbol N.D.) [3]: N.D. (Less than 5% hydrolysis after 24 hrs.)
Time (min) for 10% hydrolysis, u-PA (urokinase (u-PA)): 220 min

CCN(CC)S(=O)(=O)c1cccc2cc(N)ccc12 [ANSNR1 R2; C2 H5; C2 H5, 6-amino-1-(N,N-diethyl)naphthalenesulfonamide]
Relative Fluorescence [1]: 89
Emission Maxima [1]: 470 nm

CCCNS(=O)(=O)c1cccc2cc(N)ccc12 [ANSNR1 R2; H; C3 H7]
Relative Fluorescence [1]: 93
Emission Maxima [1]: 470 nm

CNS(=O)(=O)c1cccc2cc(N)ccc12 [ANSNR1 R2; H; CH3]
Relative Fluorescence [1]: 92
Emission Maxima [1]: 468 nm

Nc1ccc2c(S(=O)(=O)N3CCCCC3)cccc2c1 [ANSNR1 R2; (CH2)5]
Relative Fluorescence [1]: 68
Emission Maxima [1]: 473 nm

Nc1ccc2c(S(=O)(=O)N3CCCCCC3)cccc2c1 [ANSNR1 R2; (CH2)6]
Relative Fluorescence [1]: 96
Emission Maxima [1]: 469 nm

CCCCCNS(=O)(=O)c1cccc2cc(N)ccc12 [ANSNR1 R2; H; C5 H11]
Relative Fluorescence [1]: 90
Emission Maxima [1]: 469 nm

CC(C)CNS(=O)(=O)c1cccc2cc(N)ccc12 [ANSNR1 R2; H; i-C4 H9]
Relative Fluorescence [1]: 100
Emission Maxima [1]: 468 nm

CC(C)NS(=O)(=O)c1cccc2cc(N)ccc12 [ANSNR1 R2; H; i-C3 H7]
Relative Fluorescence [1]: 76
Emission Maxima [1]: 468 nm

Nc1ccc2c(S(=O)(=O)NCc3ccccc3)cccc2c1 [ANSNR1 R2; H; benzyl]
Relative Fluorescence [1]: 75
Emission Maxima [1]: 467 nm
